From patent US10155764B2, “Therapeutic compounds and uses thereof” (GENENTECH, INC., priority 2014, dated 2018) come the findings set out here.

PCAF719-832 bromodomain, sequence (Q92831 719-832): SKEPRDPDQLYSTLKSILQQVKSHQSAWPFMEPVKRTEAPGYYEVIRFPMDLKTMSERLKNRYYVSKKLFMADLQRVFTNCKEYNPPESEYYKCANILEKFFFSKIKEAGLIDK

This experiment has as its target PCAF719-832 bromodomain (Homo sapiens (Human), UniProt Q92831). Kind of experiment: PCAF AlphaLisa binding assay. Conditions: PCAF bromodomain 225 nM, biotinylated small molecule ligand 6 nM. Background: Bead proximity is the source of the signal in Alpha formats.
Method: PCAF bromodomain binding and inhibition of the compounds disclosed herein was assessed by monitoring the engagement of biotinylated small molecule ligand (known to bind to the PCAF bromodomain) with the target using the AlphaLisa technology (Perkin-Elmer).
A word on the IC50: it is the point on the concentration scale where inhibition reaches its midpoint. A higher IC50 goes with lower potency. With `CC(CN(C)C)Nc1nn(C)c(=O)c2c1CCN(c1ccc(Cl)cc1)C2` (racemic) [Example 89, 6-(4-chlorophenyl)-1-((1-(dimethylamino)propan-2-yl)amino)-3-methyl-5,6,7,8-tetrahydropyrido[3,4-d]pyridazin-4(3H)-one], the IC50 was 1200 nM. This counts as single-digit micromolar.
Compound `CN(C)C(CNc1nn(C)c(=O)c2ccccc12)c1ccccc1Cl` (racemic) [Example 25, 4-((2-(2-chlorophenyl)-2-(dimethylamino)ethyl)amino)-2-methylphthalazin-1(2H)-one] returned an IC50 of 110 nM.
For the compound `C[C@H](Nc1nn(C)c(=O)c2cccnc12)[C@H](c1ccc(C(=O)N(C)Cc2ccccc2)cc1)N(C)C` (single isomer, unassigned) [Example 84], the IC50 amounted to 56 nM. This IC50 is about 2-fold lower than that of the compound before.
